# Assay results from BindingDB's records for doi:10.1016/0960-894X(95)00299-9 (1995).
# Assay: Tested for 50% of inhibition of Osteoclastic acid phosphatase (OAP) activity, determined using dose-response curve
row,IC50,SMILES
1,30 µM,O=P(O)(O)Cc1cccc2ccccc12 [naphthalen-1-ylmethylphosphonic acid]
2,1.4 µM,"O=C(c1ccccc1)C(C(=O)c1ccccc1)(c1cccc2ccccc12)P(=O)(O)O [2-(naphthalen-1-yl)-1,3-dioxo-1,3-diphenylpropan-2-ylphosphonic acid]"
3,11 µM,Cc1ccc2ccccc2c1C(CC1CCCCC1)P(=O)(O)O (configuration not stated) [[2-Cyclohexyl-1-(2-methyl-naphthalen-1-yl)-ethyl]-phosphonic acid]

# Second part, the molecule before the results:
row,SMILES,IC50
1,O=P(O)(O)C(CC1CCCCC1)c1cccc2ccccc12 (configuration not stated) [(2-Cyclohexyl-1-naphthalen-1-yl-ethyl)-phosphonic acid],11.4 µM
2,O=P(O)(O)C(Cc1ccc(Cl)cc1)c1cccc2ccccc12 (configuration not stated) [[2-(4-Chloro-phenyl)-1-naphthalen-1-yl-ethyl]-phosphonic acid],21 µM
3,O=P(O)(O)C(Cc1ccccc1)c1cccc2ccccc12 (configuration not stated) [(1-Naphthalen-1-yl-2-phenyl-ethyl)-phosphonic acid],21 µM
4,O=P(O)(O)C(Cc1ccc(-c2ccccc2)cc1)c1cccc2ccccc12 (configuration not stated) [(2-Biphenyl-4-yl-1-naphthalen-1-yl-ethyl)-phosphonic acid],6.3 µM
